According to patent publication US10849904B2, “Methods for treatment of retinal disease by photoreceptor gene expression modulation” (University of Washington, priority 2015, dated 2020):

What was measured:
[1] = test system: intact retinas from P12 wild type mice; test: P12 mouse retinal explant culture, qPCR for rod gene expression; type: cell-based; details: P12 explants, 1 μM, 2 days, vs DMSO
Text: To identify functional Nr2e3 antagonists, compounds were cheminformatically searched and structural analogs of a putative Nr2e3 interacting compound with unknown function were collected. See FIGS. 2 and 4 for the structures of the compounds. The collected compounds were then screened in a physiologically relevant primary culture assay using intact retinas from postnatal day 12-13 (P12-13) C57BL/6 mice for suppression of Rho expression (See FIG. 6A). After a 2 day culture period with media containing DMSO or compounds at 1 μM, the retinas were collected and assessed Rho expression by qPCR. Rho was chosen because it is a well-described target of Nr2e3 in rod photoreceptors. […] This analysis also provided an initial structure-activity relationship.
Nr2e3 loss-of-function mutations lead to a reduction in rod gene expression. To determine whether the same was true for PR1 (FIG. 6D), explant cultures of P12 retina as above were treated and assayed for other rod photoreceptor genes. After 2 days in culture, PR1 decreased the expression of the rod specific genes Nrl, Nr2e3, Rho, Gnat1, and Pde6b compared to DMSO treatment by qPCR analysis (FIG. 6C). […] To determine the dose-response relationship between PR1 concentration and expression of rod genes, retinas from P12 mice were explanted in media containing DMSO or 0.1, 1, 5, or 10 μM PR1 for 2-3 days and assayed Nrl, Nr2e3, and Rho expression by qPCR. […] PR1 was tested to determine whether it could cause a reduction in Rho expression in human rod photoreceptors as well. Pairs of 113 day post-conception retinas were explanted in media with DMSO or 10 μM PR1 for 7 or 23 days. After 7 and 23 days in culture, PR1 decreased the expression of Rho compared to DMSO treatment (FIG. 6F), similar to the effect observed in mouse retinal explants.
Intact retinas without RPE from mice of various strains and ages as indicated were explanted on 0.4 μm pore tissue culture inserts (Millipore) as previously described (Ueki, Y., et al., P53 is required for the developmental restriction in Muller glial proliferation in mouse retina. Glia, 2012. 60(10): p. 1579-89; Ueki, Y., et al., A transient wave of BMP signaling in the retina is necessary for Muller glial differentiation. Development, 2015. 142(3): p. 533-43. Full media (DMEM/F12 (1:1) containing 1% dialyzed FBS, 1% Pen Strep, 0.3% D+ glucose, 2% B27, and 1% N2) changes were performed every other day and small molecules were used at 0.1 μM to 10 μM. Where indicated, EdU (Invitrogen) was included in the media at 5 μg/mL and visualized by staining with the Click-iT EdU Alexa Fluor kit (Thermo Fisher Scientific). For human retinal explant cultures, tissue from 113 day post-conception fetuses was obtained from the University of Washington Birth Defects Laboratory and explanted on 0.4 μm pore tissue culture inserts (Millipore) in media (Neurobasal A with 1% FBS, 1% Pen Strep, 1% N2, 1% B27) containing 10 μM Photoregulin1 or an equal volume of DMSO.
RNA was isolated using TRIzol (Invitrogen) and cDNA was synthesized using the iScript cDNA synthesis kit (Bio-Rad) following an intervening DNase treatment with RQ1 RNase-free DNase (Promega). SSO Fast (Bio-Rad) was used for quantitative real-time PCR. For analysis, values were normalized to Gapdh and ΔΔCt between DMSO and compound-treated samples was expressed as percent of DMSO treated controls (100*2^ΔΔCt). Two-way Student's t-tests were performed on ΔCt values.

Thrb (Trβ2) = test: Cone gene expression, Thrb (FIG. 5)

SMILES	relative rhodopsin (Rho) expression [1]	cone gene expression, Thrb (Trβ2) (Thrb (Trβ2))
Cc1cccc(C(=O)NC(C(=O)Nc2ncc(C)s2)C(C)C)c1 (stereo not shown) [CA95]	reducing rhodopsin expression	increase
Cc1cc(C)cc(NC(=O)CCc2nc3sc4c(c3c(=O)[nH]2)CCC4)c1 [CA8801]	reducing rhodopsin expression	
Cc1cccc(C(=O)NCC(=O)Nc2ncc(C)s2)c1 [CA9513]	reducing rhodopsin expression	
